Tests used:
Assay in all cases: Binding Assay
[1] = biological target: T1, Steroid C26-monooxygenase (Mycobacterium tuberculosis (strain CDC 1551 / Oshkosh), UniProt P9WPP0)
T1 sequence (P9WPP0 whole entry): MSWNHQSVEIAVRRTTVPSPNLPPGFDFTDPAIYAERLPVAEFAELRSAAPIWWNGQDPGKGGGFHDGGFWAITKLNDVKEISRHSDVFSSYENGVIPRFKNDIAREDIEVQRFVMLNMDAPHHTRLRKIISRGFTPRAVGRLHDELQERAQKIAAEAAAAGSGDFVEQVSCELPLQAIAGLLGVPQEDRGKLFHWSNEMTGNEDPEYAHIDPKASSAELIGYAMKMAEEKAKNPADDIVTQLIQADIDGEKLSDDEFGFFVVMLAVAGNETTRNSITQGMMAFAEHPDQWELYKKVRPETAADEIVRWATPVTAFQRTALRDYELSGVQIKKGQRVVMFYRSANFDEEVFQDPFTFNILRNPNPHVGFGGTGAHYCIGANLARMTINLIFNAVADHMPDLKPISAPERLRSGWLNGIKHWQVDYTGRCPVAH
From the text: (§1) Substrate and ligand binding assay using UV- visible absorbance analysis of CYP142 was done on a Cary UV-50 UV-visible scanning spectrophotometer (Varian, UK) using a 1-cm path length quartz cuvette, recording spectra between 250 and 800 nm.

[2] = biological target: T2, Steroid C26-monooxygenase (Mycobacterium tuberculosis (strain CDC 1551 / Oshkosh), UniProt P9WPL4)
T2 sequence (P9WPL4 whole entry): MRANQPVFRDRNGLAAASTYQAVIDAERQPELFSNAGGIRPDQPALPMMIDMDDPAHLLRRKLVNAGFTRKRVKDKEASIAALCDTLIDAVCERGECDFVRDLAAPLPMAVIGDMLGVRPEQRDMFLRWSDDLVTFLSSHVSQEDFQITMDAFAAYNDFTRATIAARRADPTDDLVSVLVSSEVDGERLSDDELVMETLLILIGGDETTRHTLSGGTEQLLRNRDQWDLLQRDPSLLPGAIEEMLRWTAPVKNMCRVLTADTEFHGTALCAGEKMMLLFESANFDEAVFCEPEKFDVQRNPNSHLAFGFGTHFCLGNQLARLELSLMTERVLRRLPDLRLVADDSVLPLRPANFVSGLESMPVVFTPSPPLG
From the text: as §1

[3] = biological target: T3, Cytochrome P450 144 (Mycobacterium tuberculosis (strain CDC 1551 / Oshkosh), UniProt P9WPL0)
T3 sequence (P9WPL0 whole entry): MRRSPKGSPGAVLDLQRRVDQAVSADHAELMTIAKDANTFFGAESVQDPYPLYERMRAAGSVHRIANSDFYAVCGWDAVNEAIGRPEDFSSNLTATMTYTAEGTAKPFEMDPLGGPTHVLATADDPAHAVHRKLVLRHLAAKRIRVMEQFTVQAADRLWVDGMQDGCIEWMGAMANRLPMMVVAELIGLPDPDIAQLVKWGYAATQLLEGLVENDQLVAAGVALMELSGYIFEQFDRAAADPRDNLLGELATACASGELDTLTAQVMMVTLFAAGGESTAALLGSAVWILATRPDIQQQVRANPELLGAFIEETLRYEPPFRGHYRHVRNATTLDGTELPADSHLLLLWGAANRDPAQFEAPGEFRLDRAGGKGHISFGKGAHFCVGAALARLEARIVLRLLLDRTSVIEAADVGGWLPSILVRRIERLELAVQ
From the text: as §1

SMILES | Kd [1] | Kd [2] | Kd [3]
Clc1ccccc1C(c1ccccc1)(c1ccccc1)n1ccnc1 | 5.3 µM | 3.8 µM | 0.37 µM
Clc1ccc(CO[C@@H](Cn2ccnc2)c2ccc(Cl)cc2Cl)c(Cl)c1 [Brentan] | 4.6 µM | 4 µM | 0.98 µM
c1ccc(-c2c[nH]cn2)cc1 | 216 µM | 12 µM | 280 µM
Clc1ccc(COC(Cn2ccnc2)c2ccc(Cl)cc2Cl)cc1 (configuration not stated) [ECONAZOLE] | 11.7 µM | 4.6 µM | 0.78 µM
OC(Cn1cncn1)(Cn1cncn1)c1ccc(F)cc1F [Fungata] | 43.1 µM | 860 µM | 
CC(C)CCC[C@@H](C)[C@H]1CC[C@H]2[C@@H]3CC=C4C[C@@H](O)CC[C@]4(C)[C@H]3CC[C@]12C [(1S,2R,5S,10S,11S,14R,15R)-2,15-dimethyl-14-[(2R)-6-methylheptan-2-yl]tetracyclo[8.7.0.0^{2,7}.0^{11,15}]heptadec-7-en-5-ol] | 0.11 µM | 0.34 µM | 
CC(=O)N1CCN(c2ccc(OC[C@H]3CO[C@](Cn4ccnc4)(c4ccc(Cl)cc4Cl)O3)cc2)CC1 [24F2-1,25(OH)D3] | 27.1 µM | 21 µM | 134 µM
CC(C)CCC[C@@H](C)[C@H]1CC[C@H]2[C@@H]3CCC4=CC(=O)CC[C@]4(C)[C@H]3CC[C@]12C [4-Cholesten-3-one] | 1.2 µM | 0.36 µM | 
CCC(C)n1ncn(-c2ccc(N3CCN(c4ccc(OC[C@H]5CO[C@](Cn6cncn6)(c6ccc(Cl)cc6Cl)O5)cc4)CC3)cc2)c1=O (some centres not stated) [Oriconazole] | 30.2 µM |  | 

Reference: BindingDB's records for doi:10.1074/jbc.M110.164293 (Manchester Interdisciplinary Biocentre, 2010)
